Values joined by “and” are separate entries in the source; they are usually repeats but may differ in a detail not shown here. Equal entries are not always repeated. Toxic doses and inconclusive results are not listed. No stated cut-off is given here; in the data, active means T/C of 150% or more; inactive means T/C below 125%.
System: L1210 leukemia ip in BDF1 mice, survival T/C
Test: NCI In Vivo Anticancer Drug Screen. Data for tumor model L1210 Leukemia (intraperitoneal) in B6D2F1 (BDF1) mice
Conditions: endpoint: mean survival time, higher = longer survival
Procedure, shortened: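 Value reflects the ratio of survival in compound-treated mice to survival in vehicle-treated controls, with both groups carrying the same transplanted tumor.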

[1] = dose: 100.0 mg/kg/injection, schedule: Q04DX002 (ip), vehicle: saline
[2] = dose: 200.0 mg/kg/injection, schedule: Q04DX002 (ip), vehicle: saline
[3] = dose: 400.0 mg/kg/injection, schedule: Q04DX002 (ip), vehicle: saline
[4] = dose: 100.0 mg/kg/injection, schedule: Q01DX001 (ip), vehicle: saline
[5] = dose: 200.0 mg/kg/injection, schedule: Q01DX001 (ip), vehicle: saline
[6] = dose: 400.0 mg/kg/injection, schedule: Q01DX001 (ip), vehicle: saline
[7] = dose: 100.0 mg/kg/injection, schedule: Q04DX002 (ip), vehicle: Klucel (hydroxypropylcellulose) (HPC)
[8] = dose: 200.0 mg/kg/injection, schedule: Q04DX002 (ip), vehicle: Klucel (hydroxypropylcellulose) (HPC)
[9] = dose: 400.0 mg/kg/injection, schedule: Q04DX002 (ip), vehicle: Klucel (hydroxypropylcellulose) (HPC)
[10] = dose: 25.0 mg/kg/injection, schedule: Q01DX009 (ip), vehicle: saline with Tween-80
[11] = dose: 25.0 mg/kg/injection, schedule: Q04DX003 (ip), vehicle: saline with Tween-80
[12] = dose: 50.0 mg/kg/injection, schedule: Q01DX009 (ip), vehicle: saline with Tween-80
[13] = dose: 50.0 mg/kg/injection, schedule: Q04DX003 (ip), vehicle: saline with Tween-80
[14] = dose: 100.0 mg/kg/injection, schedule: Q01DX009 (ip), vehicle: saline with Tween-80
[15] = dose: 100.0 mg/kg/injection, schedule: Q04DX003 (ip), vehicle: saline with Tween-80
[16] = dose: 100.0 mg/kg/injection, schedule: Q01DX009 (ip), vehicle: Klucel (hydroxypropylcellulose) (HPC)
[17] = dose: 100.0 mg/kg/injection, schedule: Q04DX003 (ip), vehicle: Klucel (hydroxypropylcellulose) (HPC)
[18] = dose: 200.0 mg/kg/injection, schedule: Q01DX009 (ip), vehicle: Klucel (hydroxypropylcellulose) (HPC)
[19] = dose: 200.0 mg/kg/injection, schedule: Q04DX003 (ip), vehicle: Klucel (hydroxypropylcellulose) (HPC)
[20] = dose: 400.0 mg/kg/injection, schedule: Q01DX009 (ip), vehicle: Klucel (hydroxypropylcellulose) (HPC)
[21] = dose: 400.0 mg/kg/injection, schedule: Q04DX003 (ip), vehicle: Klucel (hydroxypropylcellulose) (HPC)
[22] = dose: 50.0 mg/kg/injection, schedule: Q04DX003 (ip), vehicle: saline
[23] = dose: 100.0 mg/kg/injection, schedule: Q01DX009 (ip), vehicle: saline
[24] = dose: 100.0 mg/kg/injection, schedule: Q04DX003 (ip), vehicle: saline
[25] = dose: 200.0 mg/kg/injection, schedule: Q01DX009 (ip), vehicle: saline
[26] = dose: 200.0 mg/kg/injection, schedule: Q04DX003 (ip), vehicle: saline
[27] = dose: 400.0 mg/kg/injection, schedule: Q01DX009 (ip), vehicle: saline
[28] = dose: 400.0 mg/kg/injection, schedule: Q04DX003 (ip), vehicle: saline
[29] = dose: 200.0 mg/kg/injection, schedule: Q01DX009 (ip), vehicle: saline with Tween-80
[30] = dose: 400.0 mg/kg/injection, schedule: Q01DX009 (ip), vehicle: saline with Tween-80
[31] = dose: 50.0 mg/kg/injection, schedule: Q01DX001 (ip), vehicle: saline

Measured: T/C

O=C(NCCCl)OCCCl
inactive: [1] 94 % of control | [2] 97 % of control | [3] 94 % of control

O=C1NCC(Nc2ccccc2Cl)C(=O)N1 (centres undefined)
inactive: dose: 100.0 mg/kg/injection, schedule: Q01DX Z (ip), vehicle: saline 96 % of control

CC(=O)N(c1ccccc1)c1cc(Cl)cc[n+]1[O-]
inactive: [4] 96 % of control | [5] 96 % of control | [6] 97 % of control

O=C1c2cccc3c([N+](=O)[O-])ccc(c23)C(=O)N1Cc1ccco1
inactive: [7] 108 % of control | [8] 97 % of control | [9] 102 % of control

C=C1C(=O)O[C@H]2C[C@@H](C)[C@@H]3CC(=O)OC[C@@]3(C)CC12 (some centres undefined)
inactive: [10] 108 % of control | [11] 99 % of control | [12] 105 % of control | [13] 105 % of control | [14] 101 % of control | [15] 93 % of control and 103 % of control

CCCNC1(C(N)=O)CCN(Cc2ccccc2)CC1
inactive: [10] 93 % of control | [11] 97 % of control | [12] 95 % of control | [13] 97 % of control | [14] 91 % of control | [15] 97 % of control and 101 % of control

Nc1nc(N)nc(-c2ccncc2)n1
inactive: [12] 119 % of control

COC1=C[C@]23CCCN2C[C@H](O)c2cc4c(cc2[C@@H]3[C@@H]1O)OCO4
inactive: dose: 15.0 mg/kg/injection, schedule: Q01DX009 (ip), vehicle: saline 108 % of control | dose: 30.0 mg/kg/injection, schedule: Q01DX009 (ip), vehicle: saline 104 % of control | dose: 60.0 mg/kg/injection, schedule: Q01DX009 (ip), vehicle: saline 100 % of control

CCOC(=O)c1cnc2c(ccc3ncccc32)c1NCCCN(CC)CC
inactive: dose: 50.0 mg/kg/injection, schedule: Q01DX009 (ip), vehicle: Klucel (hydroxypropylcellulose) (HPC) 112 % of control

CCCCCCc1c(C(OC)OC)[nH]c(=S)[nH]c1=O
inactive: [16] 91 % of control | [17] 96 % of control | [18] 87 % of control | [19] 98 % of control | [20] 87 % of control | [21] 96 % of control

CCC1(CC)NC(=O)NC1=O
inactive: [22] 102 % of control | [23] 99 % of control | [24] 105 % of control | [25] 98 % of control | [26] 102 % of control | [27] 102 % of control | [28] 103 % of control

NC(C(=O)O)C(CC(=O)O)C(=O)O (centres undefined)
inactive: [24] 93 % of control | [26] 95 % of control | [28] 98 % of control

Cc1cnc(C#N)c(Cl)n1
inactive: [14] 95 % of control | [15] 92 % of control | [29] 101 % of control | dose: 200.0 mg/kg/injection, schedule: Q04DX003 (ip), vehicle: saline with Tween-80 98 % of control | [30] 88 % of control | dose: 400.0 mg/kg/injection, schedule: Q04DX003 (ip), vehicle: saline with Tween-80 97 % of control

O=C(CCCc1ccc(N(CCCl)CCCl)cc1)OCc1ccccc1
inactive: [1] 121 % of control | [2] 108 % of control | [3] 121 % of control

CCN(CC)CCCN(C)C(=O)C(O)(c1ccccc1)c1ccccc1
inactive: dose: 25.0 mg/kg/injection, schedule: Q01DX001 (ip), vehicle: saline 102 % of control | [31] 97 % of control | [4] 102 % of control

Nn1c(=O)[nH][nH]c1=O
inactive: [16] 113 % of control | [17] 97 % of control and 109 % of control | [18] 97 % of control | [19] 105 % of control and 91 % of control | [21] 109 % of control

Nc1cc(C(Cl)(Cl)Cl)nc(Cl)n1
inactive: [17] 105 % of control | [19] 94 % of control | [21] 94 % of control

O=S(=O)(Oc1ccc(Br)cc1)C1CC1c1ccccc1 (centres undefined)
inactive: [4] 106 % of control | [5] 98 % of control | [6] 103 % of control

O=N[O-].O=N[O-].O=N[O-].[Co+3].[NH2-].[NH2-].[NH2-]
inactive: [4] 92 % of control | [24] 119 % of control | [5] 90 % of control | [26] 105 % of control | [6] 97 % of control | [28] 97 % of control

CC(C)CC([NH-])C(=O)[O-].O=C(O)C(=O)O.[Co+3].[NH-]CCN(CC[NH-])CC[NH-]
inactive: dose: 50.0 mg/kg/injection, schedule: Q01DX001 (ip), vehicle: other 92 % of control | dose: 100.0 mg/kg/injection, schedule: Q01DX001 (ip), vehicle: other 100 % of control | dose: 200.0 mg/kg/injection, schedule: Q01DX001 (ip), vehicle: other 94 % of control | dose: 400.0 mg/kg/injection, schedule: Q01DX001 (ip), vehicle: other 86 % of control

O=C(O)/C=C/C(=O)Nc1ccc(N=Nc2ccccc2)cc1
inactive: [12] 101 % of control | [14] 92 % of control | [29] 89 % of control

O=C1NC2c3ccccc3CC12 (centres undefined)
inactive: dose: 100.0 mg/kg/injection, schedule: Q01DX001 (ip), vehicle: saline with Tween-80 95 % of control | dose: 200.0 mg/kg/injection, schedule: Q01DX001 (ip), vehicle: saline with Tween-80 92 % of control | dose: 400.0 mg/kg/injection, schedule: Q01DX001 (ip), vehicle: saline with Tween-80 89 % of control

CC(=O)OCC1OC(SSCc2ccccc2)C(OC(C)=O)C(OC(C)=O)C1OC(C)=O (centres undefined)
inactive: [4] 96 % of control | [5] 93 % of control | [6] 93 % of control

CN(C)c1ccc(C=C2/C(=N\O)c3ccccc3/C2=N/O)cc1
inactive: [16] 98 % of control | [18] 96 % of control | [20] 94 % of control

CCOP(=O)(OC(C)CC)OC(C)CC (centres undefined)
inactive: dose: 100.0 mg/kg/injection, schedule: Q04DX003 (ip), vehicle: carboxymethylcellulose (CMC) 93 % of control | dose: 200.0 mg/kg/injection, schedule: Q04DX003 (ip), vehicle: carboxymethylcellulose (CMC) 87 % of control

COc1cc(NC=O)c2ncccc2c1
inactive: dose: 50.0 mg/kg/injection, schedule: Q04DX003 (ip), vehicle: Klucel (hydroxypropylcellulose) (HPC) 97 % of control | [17] 100 % of control | [19] 88 % of control

CC(C)Cc1cc(C#N)cc(C(C)(C)C)c1O
inactive: [7] 100 % of control | [8] 100 % of control | [9] 103 % of control

COc1ccc(C=NCCN=Cc2ccc(OC)cc2OC)c(OC)c1
inactive: dose: 6.25 mg/kg/injection, schedule: Q01DX009 (ip), vehicle: saline with Tween-80 97 % of control | dose: 6.25 mg/kg/injection, schedule: Q04DX003 (ip), vehicle: saline with Tween-80 98 % of control | dose: 12.5 mg/kg/injection, schedule: Q01DX009 (ip), vehicle: saline with Tween-80 87 % of control | dose: 12.5 mg/kg/injection, schedule: Q04DX003 (ip), vehicle: saline with Tween-80 91 % of control | [10] 87 % of control | [11] 95 % of control

CC(=O)CC(=O)NCc1cccnc1
inactive: [22] 106 % of control | [23] 93 % of control | [24] 97 % of control | [25] 104 % of control | [26] 94 % of control and 100 % of control | [27] 98 % of control | [28] 96 % of control

N/C(=N/N=C/c1ccc(O)cc1)N[N+](=O)[O-]
inactive: [14] 105 % of control | [29] 89 % of control | [30] 90 % of control

CC1(NCc2ccc(Cl)cc2)COP(=O)(NCc2ccccc2)OC1 (centres undefined)
inactive: [31] 101 % of control | [4] 106 % of control | [5] 95 % of control | [6] 98 % of control

NC(N)=NCC1COc2ccccc2O1 (centres undefined)
inactive: dose: 25.0 mg/kg/injection, schedule: Q01DX001 (ip), vehicle: carboxymethylcellulose (CMC) 103 % of control | dose: 50.0 mg/kg/injection, schedule: Q01DX001 (ip), vehicle: carboxymethylcellulose (CMC) 106 % of control | dose: 100.0 mg/kg/injection, schedule: Q01DX001 (ip), vehicle: carboxymethylcellulose (CMC) 108 % of control
